{"source": "patent US20240241113A1", "about": "“Method for detecting binding to an ADP-ribosyl group or a polymer thereof and a kit for performing said method” (priority 2021, published 2024)", "key": {"[1]": {"biological_target": "CFP-ALC1 (human) (UniProt Q86WJ1)", "sequence (Q86WJ1 616-878 limits assumed)": "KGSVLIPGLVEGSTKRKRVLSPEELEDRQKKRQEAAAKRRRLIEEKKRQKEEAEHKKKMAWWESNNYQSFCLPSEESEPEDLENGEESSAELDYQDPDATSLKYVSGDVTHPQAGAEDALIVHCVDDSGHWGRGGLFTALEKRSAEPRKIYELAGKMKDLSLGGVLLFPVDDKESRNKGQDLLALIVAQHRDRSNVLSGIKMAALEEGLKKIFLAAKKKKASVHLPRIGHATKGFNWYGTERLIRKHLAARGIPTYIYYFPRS", "assay": "FRET competition: 250 nM CFP-ALC1 + 500 nM YFP-GAP(PAR), PARylated PARP2 varied; displaced ligand YFP-GAP(PAR) [e]"}, "[2]": {"tested_on": "viral and human ADP-ribose readers and erasers", "assay": "FRET inhibition profile against ADP-ribosyl binders with YFP-GAP(MAR) or YFP-GAP(PAR)", "type": "binding", "settings": "10 μM suramin; many of the proteins tested; ratiometric FRET", "protocol": "(§1) The experiments were carried out in assay buffer (10 mM Bis-Tris-Propane pH 7.0, 3% (w/v) PEG20,000, 0.01% (v/v) Triton X-100 and 0.5 mM TCEP) in 10 μl volume per well unless stated otherwise."}, "[3]": {"biological_target": "T1, SARS-CoV-2 nsp3 macrodomain (Severe acute respiratory syndrome coronavirus 2, UniProt P0DTD1)", "assay": "FRET-based binding assay, CFP-SARS-CoV-2 nsp3 macrodomain with MARylated YFP-Gαi", "protocol": "as §1\nFor the screening, 40 nl of 10 mM compound stocks dissolved in DMSO from the FDA-approved drug library (Enzo Life Sciences) were transferred to 384-well black low-volume polypropylene plates (Fisherbrand). The sample mixture containing 1 μM CFP-SARS-CoV-2 nsp3 macrodomain and 5 μM MARylated YFP-Gαi was prepared in assay buffer (10 mM Bis-Tris-Propane pH 7.0, 3% (w/v) PEG20,000, 0.01% (v/v) Triton X-100 and 0.5 mM TCEP) and 20 μl per well were dispensed using Mantis (Formulatrix). The rFRET signal was determined after 5 minute incubation time."}, "[4]": {"tested_on": "SARS-CoV2", "settings": "cell-culture based models; reported; cited from earlier work"}, "[5]": {"biological_target": "T1, SARS-CoV-2 nsp3 macrodomain", "assay": "Validation of suramin binding by DSF", "settings": "5 μM macrodomain without tags, suramin 10 μM, 50 μM, 100 μM or 1 mM", "protocol": "The SARS-CoV-2 nsp3 macrodomain without tags was diluted to 5 μM in 10 mM HEPES pH 7.5, 25 mM NaCl, 0.5 mM TCEP buffer and mixed with 5×SYPRO Orange. Samples were prepared with 10 μM, 50 μM, 100 μM or 1 mM of suramin. […] Samples were transferred to 96-well qPCR plates. Measurement was performed in a BioRad C1000 CFX96 thermal cycler. Data points for melting curves were recorded in 1 min intervals from 20-95° C., with the temperature increasing by 1° C./min. The analysis of the data was done in GraphPad Prism 7 using a nonlinear regression analysis (Boltzmann sigmoid equation) of normalized data."}}, "data": [{"molecule": "PARylated PARP2 (from UniProt Q9UGN5 90-583) (enzyme)", "values": [{"measurement": "IC50 (read off the curve)", "setting": "[1]", "result": 0.03, "unit": "µM"}]}, {"molecule": "Cc1ccc(C(=O)Nc2ccc(S(=O)(=O)O)c3cc(S(=O)(=O)O)cc(S(=O)(=O)O)c23)cc1NC(=O)c1cccc(NC(=O)Nc2cccc(C(=O)Nc3cc(C(=O)Nc4ccc(S(=O)(=O)O)c5cc(S(=O)(=O)O)cc(S(=O)(=O)O)c45)ccc3C)c2)c1", "note": "[suramin]", "values": [{"measurement": "inhibition of viral and human ADP-ribose readers and erasers", "setting": "[2]", "result": "strong inhibition"}, {"measurement": "inhibition at 20 µM", "setting": "[3]; 20 μM compound, 1 μM CFP-SARS-CoV-2 nsp3 macrodomain, 5 μM MARylated YFP-Gαi, rFRET, read-out: inhibition in screen of ENZO FDA-approved drug library", "result": 82, "unit": "%"}, {"measurement": "IC50", "setting": "[3]; FRET-based assay, dose-response curve, read-out: IC50 against the SARS-CoV-2 nsp3 macrodomain", "result": 8.7, "unit": "µM"}, {"measurement": "inhibition of SARS-CoV2 infection", "setting": "[4]", "result": "inhibit"}, {"measurement": "stabilization of the protein by DSF", "setting": "[5]", "result": "stabilization of the protein in a concentration dependent manner"}, {"measurement": "stabilization of the protein by DSF", "setting": "[5]; listed as Suramin", "result": "stabilization"}]}]}
